From patent US6545009B1, “Retinoid-related receptor function regulating agent” (Takeda Chemical Industries, Ltd., priority 1998, dated 2003)

Columns and labels:
PPARγ-RXRα heterodimer = biological target: T1, PPARγ-RXRα heterodimer (Homo sapiens, UniProt P19793+P37231); experiment: PPARγ-RXRα heterodimer ligand activity (luciferase reporter in PPARγ:RXRα:4ERPP/CHO-K1 cells); format: cell-based; settings: for EC50: luciferase fold induction, 48 hours
T1 construct: expressed in transfected cells; host or cells: CHO-K1
T1 sequence (P37231 1-477 isoform P37231-2): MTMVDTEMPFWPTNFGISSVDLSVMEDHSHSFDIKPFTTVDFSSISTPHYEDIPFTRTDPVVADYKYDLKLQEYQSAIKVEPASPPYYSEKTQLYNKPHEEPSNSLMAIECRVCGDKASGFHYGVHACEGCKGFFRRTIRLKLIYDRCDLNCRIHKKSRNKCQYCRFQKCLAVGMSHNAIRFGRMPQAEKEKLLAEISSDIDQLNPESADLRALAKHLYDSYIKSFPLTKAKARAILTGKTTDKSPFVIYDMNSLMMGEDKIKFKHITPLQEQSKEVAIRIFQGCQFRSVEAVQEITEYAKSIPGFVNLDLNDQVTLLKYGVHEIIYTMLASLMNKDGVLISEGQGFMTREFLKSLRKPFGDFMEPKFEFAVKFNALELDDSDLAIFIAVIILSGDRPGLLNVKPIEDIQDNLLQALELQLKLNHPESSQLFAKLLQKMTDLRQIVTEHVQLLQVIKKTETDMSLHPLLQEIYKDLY
T1 sequence (P19793 1-462): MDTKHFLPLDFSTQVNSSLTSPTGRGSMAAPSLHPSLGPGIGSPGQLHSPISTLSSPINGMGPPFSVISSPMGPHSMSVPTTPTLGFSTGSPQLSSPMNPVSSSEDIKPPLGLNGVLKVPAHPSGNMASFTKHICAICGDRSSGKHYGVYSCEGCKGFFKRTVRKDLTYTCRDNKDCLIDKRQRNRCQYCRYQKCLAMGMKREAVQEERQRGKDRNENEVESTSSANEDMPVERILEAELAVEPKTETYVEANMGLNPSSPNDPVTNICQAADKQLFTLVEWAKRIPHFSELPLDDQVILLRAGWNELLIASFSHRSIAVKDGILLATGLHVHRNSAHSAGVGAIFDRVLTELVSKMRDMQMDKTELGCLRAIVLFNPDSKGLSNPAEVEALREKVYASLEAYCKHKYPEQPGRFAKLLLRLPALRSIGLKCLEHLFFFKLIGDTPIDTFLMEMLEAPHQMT
Experimental: (§1) PPAR γ:RXR α:4ERPP/CHO-K1 cells obtained in Reference Example 5 were cultured in HAM F12 medium (produced by NISSUI SEIYAKU) containing 10% Fetal bovine serum (produced by Life Technologies, Inc., USA) and then inoculated to a 96-well white plate (produced by Corning Costar Corporation, USA) at the density of 2×10^4 cells/well, and cultured in a CO2 gas incubator at 37° C. overnight.
(§2) After washing the 96 well white plate with PBS (Phosphate-buffered saline), 90 μl of HAM F12 medium containing 0.1% fatty acid-free bovine serum albumin (BSA) and 10 μl of test compound were added to each well, and the plate was cultured in a CO2 gas incubator at 37° C. for 48 hours. After removing the medium, 40 μl of PIKKAGENE 7.5 (produced by Wako Pure Chemical Industries, Ltd.) was added to the well. After stirring, the luciferase activity was determined using Lumistar (produced by BMG Labtechnologies GmbH, Germany).
(§3) A fold induction was calculated based on the luciferase activity of each test compound by estimating the luciferase activity in the non-treatment group as 1. The values of the test compound concentration and the fold induction were used to calculate the EC50 values, the effective concentration of a test compound for 50% of the maximum fold induction, by using PRISM 2.01 (produced by GraphPad Software Inc. USA).
as §1, with “PPARγ:RXRα:4ERPP/CHO-K1” for “PPAR γ:RXR α:4ERPP/CHO-K1”, “Reference.” for “Reference”
as §2, with “7.5 produced” for “7.5 (produced”, “Labtechnologies Gmbh,” for “Labtechnologies GmbH,”
as §3, with “maximum” for “maximum fold”, “USA). The results are shown in [Table 1].” for “USA).”

KKA^y mice = experiment: Hypoglycemic and hypolipidemic (hypotriglyceridemic) activities in mice; format: in vivo; settings: four days; for Hypoglycemic effect (%) / Hypolipidemic effect (%): 0.01% in powdered diet; for Hypoglycemic effect (%): reduction rate of plasma glucose compared with non-treatment group; for Hypolipidemic effect (%): reduction rate of plasma triglyceride compared with non-treatment group
Experimental: Test compound was mixed in a powdered diet (CE-2, Japan Clea) at the concentration of 0.01%, and freely given to KKA^y mice (9 to 12 weeks old, 5 mice in a group) a model of obese and non-insulin-dependent diabetes mellitus (Type 2 diabetes mellitus), for four days. […] During the experimental period, water was given freely Blood was obtained from orbital venous plexus, and glucose and triglyceride levels in plasma were determined enzymatically using L type Wako Glu2 (Wako Pure Chemical Industries, Ltd.) and L type Wako TG·H (Wako Pure Chemical Industries, Ltd.), respectively.
Test compound was mixed in a powdered diet (CE-2, Japan Clea) at the concentration of 0.01%, and freely given to KKA^y mice (9 to 12 weeks old, 5 mice in a group), a model of obese and.non-insulin-dependent diabetes mellitus (Type 2 diabtes mellitus), for four days. During this period, water was given freely. Blood was obtained from orbital venous plexus, and glucose and triglyceride levels in plasma were determined enzymatically using L type Wako Glu2 (Wako Pure Chemical Industries, Ltd.) and L type Wako TG·H (Wako Pure Chemical Industries, Ltd.), respectively.
The value of each treatment group is represented as reduction rate (%) compared with the non-treatment group, which is shown in [Table 2].

Row | SMILES | EC50 (PPARγ-RXRα heterodimer) [nM] | melting point [°C] | further results
1 | Cc1cc(-c2csc(-c3cccc(C(=O)O)c3)n2)c(C)o1 [Example 72, 3-[4-(2,5-dimethyl-3-furyl)-2-thiazolyl]benzoic acid] | 0.6 | 174 to 175 | –
2 | O=C(O)c1cccc(-c2nc(-c3cc(Cl)sc3Cl)cs2)c1 [Example 95, 3-[4-(2,5-dichloro-3-thienyl)-2-thiazolyl]benzoic acid] | 100 | 241 to 242 | –
3 | CCOc1ccc(-c2csc(-c3cccc(C(=O)O)c3)n2)cc1 [Example 96, 3-[4-(4-ethoxyphenyl)-2-thiazolyl]benzoic acid] | 1.9 | – | –
4 | O=C(O)c1ccc(-c2nc(-c3ccc(OC(F)(F)F)cc3)cs2)cc1 [Example 64, 4-[4-(4-trifluoromethoxylphenyl)-2-thiazolyl]benzoic acid] | 310 | 245 to 246 | Hypoglycemic effect (%) (KKA^y mice): 68%; Hypolipidemic effect (%) (KKA^y mice): 88%
5 | O=C(O)c1ccc(-c2cnc(-c3ccc(C(F)(F)F)cc3)s2)cc1 [Example 113, 4-[2-(4-trifluoromethylphenyl)-5-thiazolyl]benzoic acid] | 60 | – | Hypoglycemic effect (%) (KKA^y mice): 45%; Hypolipidemic effect (%) (KKA^y mice): 53%
6 | O=C(O)c1ccc(-c2nc(-c3ccc(Cl)cc3)co2)cc1 [Example 8, 4-[4-(4-chlorophenyl)-2-oxazolyl]benzoic acid] | 92 | – | –
7 | O=C(O)c1ccc(-c2nc(-c3ccc(C(F)(F)F)cc3)co2)cc1 [Example 9, 4-[4-(4-trifluoromethylphenyl)-2-oxazolyl]benzoic acid] | 23 | 258 to 259 | Hypoglycemic effect (%) (KKA^y mice): 51%; Hypolipidemic effect (%) (KKA^y mice): 67%
8 | O=C(O)c1ccc(-c2nc(-c3ccc(Cl)cc3)cs2)cc1 [Example 52, 4-[4-(4-chlorophenyl)-2-thiazolyl]benzoic acid] | – | – | hypoglycemic activity (KKA^y mice; 0.01% in diet, dose ranging from 0.1 to 50 mg/kg/day, plasma glucose): potent; hypolipidemic (hypotriglyceridemic) activity (KKA^y mice; 0.01% in diet, dose ranging from 0.1 to 50 mg/kg/day, plasma triglyceride): potent; PPARγ-RXRα heterodimer ligand activity (PPARγ-RXRα heterodimer; at a concentration ranging from 10^−5 M to 10^−9 M): potent
9 | CC(C)c1ccc(-c2csc(-c3cccc(C(=O)O)c3)n2)cc1 [Example 100, 3-[4-(4-isopropylphenyl)-2-thiazolyl]benzoic acid] | 5.1 | 214 to 215 | –
10 | O=C(O)c1ccc(-c2nc(-c3ccc(C(F)(F)F)cc3)cs2)cc1 [Example 55, 4-[4-(4-trifluoromethylphenyl)-2-thiazolyl]benzoic acid] | 68 | 164 to 165 | Hypoglycemic effect (%) (KKA^y mice): 70%; Hypolipidemic effect (%) (KKA^y mice): 86%
11 | CCOC(=O)c1ccc(-c2csc(-c3ccc(Cl)cc3)n2)cc1 [Example 103, ethyl 4-[2-(4-chlorophenyl)-4-thiazolyl)benzoate] | – | 105 to 106 | –
12 | COC(=O)c1ccc(-c2nc(-c3cccc(OC(F)(F)F)c3)cs2)cc1 [Example 40, methyl 4-[4-(3-trifluoromethoxyphenyl)-2-thiazolyl]benzoate] | – | 132 to 134 | –
13 | CCOC(=O)c1cccc(-c2nc(-c3ccc(OCC)cc3)cs2)c1 [Example 82, ethyl 3-[4-(4-ethoxyphenyl)-2-thiazolyl]benzoate] | – | 108 to 110 | –
14 | COc1ccc(-c2coc(-c3ccc(C(=O)O)cc3)n2)cc1 [Example 10, 4-[4-(4-methoxyphenyl)-2-oxazolyl]benzoic acid] | – | 286 to 287 | –
15 | O=C(O)c1ccc(-c2coc(-c3ccc(Cl)cc3)n2)cc1 [Example 13, 4-[2-(4-chlorophenyl)-4-oxazolyl]benzoic acid] | – | 288 to 289 | –
16 | O=C(O)c1ccc(-c2nc(-c3ccccc3C(F)(F)F)cs2)cc1 [Example 60, 4-[4-(2-trifluoromethylphenyl)-2-thiazolyl]benzoic acid] | – | 225 to 227 | –
17 | COC(=O)c1ccc(-c2nc(-c3cc(C(F)(F)F)cc(C(F)(F)F)c3)co2)cc1 [Example 17, methyl 4-[4-[3,5-bis(trifluoromethyl)phenyl]-2-oxazolyl]benzoate] | – | 180 to 181 | –
18 | O=C(O)c1ccc(-c2cnc(-c3ccc(C(F)(F)F)cc3)o2)cc1 [Example 110, 4-[2-(4-trifluoromethylphenyl)-5-oxazolyl]benzoic acid] | 48 | 253 to 254 | Hypoglycemic effect (%) (KKA^y mice): 73%; Hypolipidemic effect (%) (KKA^y mice): 87%
19 | Br.CCOC(=O)c1ccc(-c2csc(-c3cccnc3)n2)cc1 [Example 31, ethyl 4-[2-(3-pyridyl)-4-thiazolyl]benzoate hydrobromide] | – | 234 to 236 | –
